One test has as its target recombinant human HDAC6 (Homo sapiens (Human), UniProt Q9UBN7). The test can be described thus: Enzymatic screening, HDAC6 inhibition (fluorogenic FdL_G substrate). The class given is biochemical. The essentials:
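Enzyme was preincubated with compound (8 doses, triplicate, 1% DMSO) in 25 mM Tris-HCl pH 8, 130 mM NaCl, 0.05% Tween-20, 10% glycerol, with BSA. A FLUOR DE LYS-Green substrate was then added, and fluorescence was read after developer plus 2 μM TSA.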

A further test has as its target recombinant human HDAC1 (Homo sapiens (Human), UniProt Q13547). The test can be described thus: Enzymatic screening, HDAC1 inhibition (fluorogenic FdL_G substrate). The test is classed as biochemical. In outline:
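Recombinant human HDAC1 inhibition was measured fluorometrically using the FLUOR DE LYS-Green (FdL_G) substrate. Compounds at 8 doses (1% DMSO final) in Tris-HCl pH 8 buffer with NaCl, Tween-20 and glycerol were preincubated in triplicate with enzyme and 1 mg/mL BSA, then given substrate. Developer I plus 2 μM TSA was added, and fluorescence read after 25 minutes in the dark.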

Chain of recombinant human HDAC6 (Q9UBN7 whole entry): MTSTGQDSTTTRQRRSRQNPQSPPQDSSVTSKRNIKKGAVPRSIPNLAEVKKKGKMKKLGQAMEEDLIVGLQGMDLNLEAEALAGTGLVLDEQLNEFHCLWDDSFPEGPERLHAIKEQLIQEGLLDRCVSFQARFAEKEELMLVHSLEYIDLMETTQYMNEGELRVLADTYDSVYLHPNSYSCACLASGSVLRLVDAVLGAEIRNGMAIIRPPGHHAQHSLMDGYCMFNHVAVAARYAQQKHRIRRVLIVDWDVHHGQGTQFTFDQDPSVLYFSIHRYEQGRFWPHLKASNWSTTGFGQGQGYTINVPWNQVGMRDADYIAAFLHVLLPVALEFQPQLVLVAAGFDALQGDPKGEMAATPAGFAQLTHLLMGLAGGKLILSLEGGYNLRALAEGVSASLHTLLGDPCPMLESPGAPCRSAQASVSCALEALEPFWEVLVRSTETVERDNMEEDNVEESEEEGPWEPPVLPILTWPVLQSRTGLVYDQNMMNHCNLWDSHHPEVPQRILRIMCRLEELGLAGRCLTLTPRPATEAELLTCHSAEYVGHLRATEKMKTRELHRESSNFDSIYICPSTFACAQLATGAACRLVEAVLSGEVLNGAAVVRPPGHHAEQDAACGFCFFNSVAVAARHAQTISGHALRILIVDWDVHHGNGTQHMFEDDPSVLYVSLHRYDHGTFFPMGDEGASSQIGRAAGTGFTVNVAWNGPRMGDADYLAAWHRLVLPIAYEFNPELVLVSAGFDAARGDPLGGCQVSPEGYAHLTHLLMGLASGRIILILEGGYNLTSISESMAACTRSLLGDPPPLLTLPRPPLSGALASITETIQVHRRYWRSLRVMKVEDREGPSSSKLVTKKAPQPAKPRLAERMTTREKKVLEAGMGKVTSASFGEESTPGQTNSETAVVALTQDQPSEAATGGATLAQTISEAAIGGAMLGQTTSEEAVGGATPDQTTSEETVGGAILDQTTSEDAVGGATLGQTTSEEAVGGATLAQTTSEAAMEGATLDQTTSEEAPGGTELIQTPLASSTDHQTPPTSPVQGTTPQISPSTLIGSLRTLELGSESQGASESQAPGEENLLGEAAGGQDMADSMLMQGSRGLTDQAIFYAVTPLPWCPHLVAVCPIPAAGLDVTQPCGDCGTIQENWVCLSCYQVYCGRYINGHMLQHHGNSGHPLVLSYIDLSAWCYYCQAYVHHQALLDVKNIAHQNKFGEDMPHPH
Chain of recombinant human HDAC1 (Q13547 whole entry): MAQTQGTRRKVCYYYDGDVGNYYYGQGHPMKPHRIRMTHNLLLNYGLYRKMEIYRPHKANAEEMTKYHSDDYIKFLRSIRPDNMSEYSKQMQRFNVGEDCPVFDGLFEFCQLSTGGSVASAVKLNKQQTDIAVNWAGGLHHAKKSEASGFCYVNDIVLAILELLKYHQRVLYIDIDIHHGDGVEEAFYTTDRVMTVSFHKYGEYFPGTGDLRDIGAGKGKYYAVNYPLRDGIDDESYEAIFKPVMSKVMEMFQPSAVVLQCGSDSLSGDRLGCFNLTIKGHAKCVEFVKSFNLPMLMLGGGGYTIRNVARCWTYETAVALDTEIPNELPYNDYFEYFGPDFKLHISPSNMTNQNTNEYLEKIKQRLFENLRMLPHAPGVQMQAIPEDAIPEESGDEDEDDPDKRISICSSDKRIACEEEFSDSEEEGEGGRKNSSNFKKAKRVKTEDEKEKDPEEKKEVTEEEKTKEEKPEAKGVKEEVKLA

With `CC1(C)NC(=O)c2cc(-c3cn(Cc4ccc(-c5nnc(C(F)F)o5)cc4)nn3)ccc21` [compound 245, 6-(1-(4-(5-(difluoromethyl)-1,3,4-oxadiazol-2-yl)benzyl)-1H-1,2,3-triazol-4-yl)-3,3-dimethylisoindolin-1-one], the values for the IC50 at recombinant human HDAC6 and at recombinant human HDAC1 were 264 nM and greater than 200000 nM, respectively.

For `Fc1cc(-c2nnc(C(F)F)o2)cc(F)c1Cn1cc(-c2ccc(CN3CC(C(F)(F)F)C3)cc2)nn1` [compound 214, 2-(3,5-difluoro-4-((4-(4-((3-(trifluoromethyl)azetidin-1-yl)methyl)phenyl)-1H-1,2,3-triazol-1-yl)methyl)phenyl)-5-(difluoromethyl)-1,3,4-oxadiazole], the results for the IC50 on recombinant human HDAC6 and on recombinant human HDAC1 were 151 nM and greater than 200000 nM, respectively.

On to `FC(F)c1nnc(-c2ccc(Cn3nnc(-c4cccc(-n5cccn5)c4)n3)cc2)o1` [compound 188, 2-(4-((5-(3-(1H-pyrazol-1-yl)phenyl)-2H-tetrazol-2-yl)methyl)phenyl)-5-(difluoromethyl)-1,3,4-oxadiazole], for which the IC50 is 99 nM on recombinant human HDAC6 and greater than 200000 nM on recombinant human HDAC1.

On to `FC(F)c1nnc(-c2ccc(Cn3cc(-c4ccc(NC5=NCCN5)cc4)nn3)nc2)o1` [compd. 24, N-(4-(1-((5-(5-(difluoromethyl)-1,3,4-oxadiazol-2-yl)pyridin-2-yl)methyl)-1H-1,2,3-triazol-4-yl)phenyl)-4,5-dihydro-1H-imidazol-2-amine], for which the IC50 was 7 nM at recombinant human HDAC6 and greater than 200000 nM on recombinant human HDAC1.

As for `Nc1ncnc2sc(-c3cn(Cc4ccc(-c5nnc(C(F)F)o5)cc4)nn3)cc12` [compound 178, 6-(1-(4-(5-(difluoromethyl)-1,3,4-oxadiazol-2-yl)benzyl)-1H-1,2,3-triazol-4-yl)thieno[2,3-d]pyrimidin-4-amine], the IC50 at recombinant human HDAC6 was 89 nM; on recombinant human HDAC1, greater than 200000 nM.

Turning to `CC(C)(C)OC(=O)N1CCc2[nH]c(-c3cccc(-c4nnn(Cc5ccc(-c6nnc(C(F)F)o6)cc5)n4)c3)nc2C1` [compound 272, tert-butyl 2-(3-(2-(4-(5-(difluoromethyl)-1,3,4-oxadiazol-2-yl)benzyl)-2H-tetrazol-5-yl)phenyl)-1,4,6,7-tetrahydro-5H-imidazo[4,5-c]pyridine-5-carboxylate], the IC50 at recombinant human HDAC6 is 407 nM; at recombinant human HDAC1, greater than 200000 nM.

Take `FC(F)c1nnc(-c2ccc(Cn3nnc(-c4ccc5cnccc5c4)n3)c(Cl)c2)o1` [compound 426, 2-(3-chloro-4-((5-(isoquinolin-6-yl)-2H-tetrazol-2-yl)methyl)phenyl)-5-(difluoromethyl)-1,3,4-oxadiazole]: the IC50 amounted to 345 nM on recombinant human HDAC6 and 1e+06 nM on recombinant human HDAC1.

In the case of `Cn1c(N)nc2cc(-c3cn(Cc4ccc(-c5nnc(C(F)F)o5)cn4)cn3)ccc21` [compound 328, 5-[1-[[5-[5-(difluoromethyl)-1,3,4-oxadiazol-2-yl]pyridin-2-yl]methyl]imidazol-4-yl]-1-methylbenzimidazol-2-amine], the IC50 was 14 nM at recombinant human HDAC6 and greater than 1e+06 nM at recombinant human HDAC1.

On to `FC(F)c1nnc(-c2ccc(Cn3nnc(-c4cccc(-c5nc6c([nH]5)CNCC6)c4)n3)c(Cl)c2)o1` [compound 365, 2-[3-chloro-4-[[5-[3-(4,5,6,7-tetrahydro-3H-imidazo[4,5-c]pyridin-2-yl)phenyl]tetrazol-2-yl]methyl]phenyl]-5-(difluoromethyl)-1,3,4-oxadiazole], for which the IC50 was 106 nM on recombinant human HDAC6 and greater than 1e+06 nM at recombinant human HDAC1.

On to `CC(c1ccc(-c2nnc(C(F)F)o2)cc1F)n1cc(-c2cccc(NC(=O)N3CCOCC3)c2)nn1` (centres unmarked) [compound 165, N-(3-(1-(1-(4-(5-(difluoromethyl)-1,3,4-oxadiazol-2-yl)-2-fluorophenyl)ethyl)-1H-1,2,3-triazol-4-yl)phenyl)morpholine-4-carboxamide], for which the IC50 on recombinant human HDAC6 was 78 nM; at recombinant human HDAC1, greater than 200000 nM.
